Tests used:
[1] = biological target: T1, Retinoic acid receptor alpha [200-419] (Homo sapiens, UniProt P10276); assay: Retinoid Competition Binding Assay; conditions: pH 7.9; 4 °C
T1 construct: 200-419
T1 sequence (P10276 whole entry): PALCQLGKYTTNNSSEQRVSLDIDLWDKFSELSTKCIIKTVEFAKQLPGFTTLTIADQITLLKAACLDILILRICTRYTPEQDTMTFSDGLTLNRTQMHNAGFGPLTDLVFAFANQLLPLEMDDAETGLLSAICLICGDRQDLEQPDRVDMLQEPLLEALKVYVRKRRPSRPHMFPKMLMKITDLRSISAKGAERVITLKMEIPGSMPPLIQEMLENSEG

[2] = biological target: T2, Retinoic acid receptor beta [200-419] (Homo sapiens, UniProt P10826); assay: Retinoid Competition Binding Assay; conditions: pH 7.9; 4 °C
T2 construct: 200-419
T2 sequence (P10826 whole entry): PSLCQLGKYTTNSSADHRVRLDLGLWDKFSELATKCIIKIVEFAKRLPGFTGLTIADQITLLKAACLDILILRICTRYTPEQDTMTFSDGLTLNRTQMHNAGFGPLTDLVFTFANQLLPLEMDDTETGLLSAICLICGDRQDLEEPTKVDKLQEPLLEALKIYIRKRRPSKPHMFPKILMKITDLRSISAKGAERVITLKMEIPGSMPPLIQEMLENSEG

Structure (SMILES): CC1(C)CCC(C)(C)c2cc(C(=O)/C=C/c3ccc(C(=O)O)cc3)ccc21 [Ch 80]
- Kd [1]: 0.4 nM
- Kd [2]: 3.5 nM

Source: BindingDB's records for doi:10.1006/jmbi.2000.4032 (Cnrs, 2000)
